Test: in vitro
Conditions: human, hela cells, % viability

Structure (SMILES)	viability at 28.5 h, 10 µM	viability at 28.5 h, 10 µM (bulk resorufin, single well)
O=C(CNC(=O)c1ccccc1)N/N=C/c1ccc(C(=O)O)cc1 [CBK261976]	102%	–
Nc1ccc(Oc2ccc3nc4c5cc(I)ccc5c5ccc(I)cc5c4nc3c2)cc1 [CBK261978]	87.6%	–
O=C1c2ccccc2-c2onc3c(NCc4ccccc4)cc(Nc4ccccc4)c1c23 [CBK261979]	84%	–
C/C(=C\C(=O)NC1CC(C)(C)NC(C)(C)C1)NC1CC(C)(C)NC(C)(C)C1 [CBK261982]	113%	–
Cc1ccc(S(=O)(=O)N=C2NCN(CC(=O)O)CN2)cc1 [CBK261983N]	93.6%	–
CC1(C)CC(NC(=O)CCc2cc(C(C)(C)C)c(O)c(C(C)(C)C)c2)CC(C)(C)N1 [CBK261986]	88.9%	–
Nc1nonc1-n1nnc(C(=O)N/N=C2\CCc3ccccc32)c1-c1ccccc1 [CBK261988]	95.1%	–
COc1ccccc1C(=O)NCC(=O)N/N=C/c1ccc(N(C)C)cc1 [CBK261989]	104%	–
CC(C)(C)c1cc(CN(Cc2cc(C(C)(C)C)c(O)c(C(C)(C)C)c2)/N=C\c2ccccc2O)cc(C(C)(C)C)c1O [CBK261990]	101%	–
Cc1cc(I)ccc1NC(=O)CCC(=O)N/N=C/c1ccco1 [CBK261991]	99.4%	–
CC(C)(C)c1cc(CN(Cc2cc(C(C)(C)C)c(O)c(C(C)(C)C)c2)C2CCCCC2)cc(C(C)(C)C)c1O [CBK261996]	106%	–
c1ccc2c(OCCOCCN3CCCCC3)cccc2c1 [CBK262000]	88%	–
Oc1ccccc1/C=N/Nc1nnc(-c2ccccc2)c(-c2ccccc2)n1 [CBK262003]	93%	–
CC1(C)CC(/N=C(\c2ccccc2)c2ccc(O)cc2O)CC(C)(C)N1 [CBK262004]	101%	–
O=[N+]([O-])c1ccc(NCCCNS(=O)(=O)c2ccc3ccccc3c2)c(Cl)c1 [CBK262006]	79.3%	–
O=C(CCC(=O)Nc1ccc(I)cc1)N/N=C/c1ccc(Br)cc1 [CBK262010]	88.9%	–
C[N+](C)(C)CCC(=O)CCC(=O)O [CBK262012I]	102%	–
COc1cc(/C=N/NC(=O)CNC(=O)c2ccncc2)ccc1O [CBK262013]	102%	–
Cc1cc(O)n(-c2cc(-c3ccccc3)nc(-c3ccccc3)n2)n1 [CBK262014]	95.5%	–
COc1cc(/C=N/CC/N=C/c2ccc(O)c(OC)c2)ccc1O [CBK262015]	106%	–
NNC(=O)Nc1ccc(Cc2ccc(NC(=O)NN)cc2)cc1 [CBK262017]	88.5%	–
C/C(=N\NC(=O)CNC(=O)c1ccc(Br)cc1)c1ccccc1 [CBK262020]	103%	–

Structure (SMILES)	viability at 28.5 h, 10 µM	viability at 28.5 h, 10 µM (bulk resorufin, single well)
Cc1cccc(NC(=O)CCC(=O)N/N=C/c2cccnc2)c1 [CBK262023]	103%	–
O=C(CN1C(=O)c2ccccc2C1=O)Nc1cc(C(=O)O)cc(C(=O)O)c1 [CBK262024]	102%	–
C(=N\Nc1nnc(-c2ccccc2)c(-c2ccccc2)n1)/c1cccnc1 [CBK262025]	91.8%	–
O=[N+]([O-])c1ccc(-c2ccc(/C=N/Nc3nnc4c(n3)[nH]c3ccccc34)o2)cc1 [CBK262029]	90.4%	–
O=[N+]([O-])c1ccccc1NC1OCC(O)C(O)C1O (stereo not shown) [CBK262032]	90.3%	–
O=C1Nc2ccc(S(=O)(=O)NCCCO)c3cccc1c23 [CBK262033]	85.9%	–
Clc1ccc(/C=N/Nc2nnn[nH]2)c(Cl)c1 [CBK262034]	98%	–
O=C(O)CS(=O)(=O)c1ccc(Cl)cc1 [CBK262036G]	114%	–
N/C(=N\OCC(=O)Nc1cccc([N+](=O)[O-])c1)c1nonc1N [CBK262044]	90%	–
CN(C)CC(C)(C)CNC=C1C(=O)CC(C)(C)CC1=O [CBK262046]	99.9%	–
O=C(NN=Cc1ccc(O)cc1)c1cc[n+](Cc2ccccc2)cc1 [CBK262047C]	87.3%	–
Cc1nn(-c2ccccc2)c(O)c1/C=N/c1ccccc1Sc1c(C)n[nH]c1C [CBK262048]	89.1%	–
O=C(OCc1ccccc1)Oc1cncc(C(=O)O)c1 [CBK262053]	91.1%	–
Cc1n[nH]c(C)c1Sc1ccccc1/N=C/c1ccc(C(=O)O)cc1 [CBK262055]	86.9%	–
O=C(O)CCSc1nc2ccccc2[nH]1 [CBK262056]	96.2%	–
CC1(C)CC(=O)C(=CNCCC(c2ccccc2)c2ccccc2)C(=O)C1 [CBK262057]	114%	–
CCSc1nc2ccccc2n1CC(=O)O [CBK262059]	87.7%	–
O=C(O)CCCNC(=O)c1cncc(O)c1 [CBK262060]	81.8%	–
Cc1ccc(OCC(O)CN(C)S(=O)(=O)O)c([N+](=O)[O-])c1 (stereo not shown) [CBK262062K]	85.3%	–
O=C(C[n+]1cccc(C(=O)N/N=C/c2ccc(Br)cc2)c1)c1ccccc1 [CBK262063B]	90.1%	–
O=C(Oc1ccc(/C=N/Nc2nc(N3CCOCC3)nc(N3CCOCC3)n2)cc1)c1ccccc1 [CBK262064]	107%	–
c1ccc(C(=NCCN=C(c2ccccc2)c2ccccc2)c2ccccc2)cc1 [CBK262065]	113%	–

Structure (SMILES)	viability at 28.5 h, 10 µM	viability at 28.5 h, 10 µM (bulk resorufin, single well)
Cc1n[nH]c(C)c1Sc1ccccc1/N=C/c1ccccc1O [CBK262068]	93%	–
O=C(O)CSc1ncnc2ccccc12 [CBK262069]	94.4%	–
Cc1cc(C)nc(SCc2c(C)c(C)c(CSc3nc(C)cc(C)n3)c(C)c2C)n1 [CBK262070]	109%	–
CCC1CCCCN1S(=O)(=O)c1cccc2c(S(=O)(=O)N3CCCCC3CC)cccc12 (stereo not shown) [CBK262073]	92.8%	–
C/C(=N/O)c1ccc(OCCCOc2ccc(/C(C)=N/O)cc2)cc1 [CBK262075]	95.2%	–
O=C(NO)c1nc[nH]c1C(=O)NO [CBK262077]	97.7%	–
O=C1CC(N2CCN(C/C=C/c3ccccc3)CC2)C(=O)N1CCc1ccccc1 (stereo not shown) [CBK262082]	83.6%	–
CC(NC(=O)COc1ccc(Br)cc1)C(=O)O (stereo not shown) [CBK262083]	87.4%	–
Cn1ccnc1C(O)(c1ccccc1)c1nccn1C [CBK262084]	97.6%	–
O=C(Nc1ccc(Cc2ccc(NC(=O)c3ccc(Br)cc3)c(O)c2)cc1O)c1ccc(Br)cc1 [CBK262086]	102%	–
CCC(Oc1ccccc1)C(=O)Nc1sc2c(c1C#N)CCCC2 (stereo not shown) [CBK262091]	87.5%	–
O=C(COc1ccc([N+](=O)[O-])cc1)N/N=C/c1cc(Br)cc(Br)c1O [CBK262094]	98.3%	–
COc1cccc(NC(=O)C(=O)NCCCO)c1 [CBK262095]	89.6%	–
COc1cccc(/C=N/NC(=O)C(=O)NCc2ccccn2)c1O [CBK262097]	93.5%	–
O=C(Nc1cccnc1)c1cc(S(=O)(=O)N2CCOCC2)ccc1Cl [CBK262099]	84.7%	–
O=C(NN1C(=O)c2ccccc2C1=O)c1cc(C(=O)NN2C(=O)c3ccccc3C2=O)cc(N2C(=O)c3ccccc3C2=O)c1 [CBK262100]	88.2%	–
Cc1ccc(Nc2nc(N/N=C/c3cccc4ccccc34)nc(N3CCC(Cc4ccccc4)CC3)n2)cc1 [CBK262101]	94.7%	–
Cc1ccc(C=C2C(=O)NC(=O)NC2=O)cc1[N+](=O)[O-] [CBK262102]	–	97.9%
O=C(c1ccco1)N1CCN(S(=O)(=O)c2ccc3c(c2)C(=NO)c2cc(S(=O)(=O)N4CCN(C(=O)c5ccco5)CC4)ccc2-3)CC1 [CBK262103]	104%	–
CC(=O)Nc1ccc(N2C(=O)c3ccc(S(=O)(=O)c4ccc5c(c4)C(=O)N(c4ccc(NC(C)=O)cc4)C5=O)cc3C2=O)cc1 [CBK262105]	77.8%	–
O=C(CCn1c2ccccc2c2ccccc21)NNC(=S)Nc1ccccc1 [CBK262106]	94.6%	–
CC(=O)Nc1ccc(S(=O)(=O)N2CCCC(CO)C2)cc1 (stereo not shown) [CBK262108]	98.6%	–

Structure (SMILES)	viability at 28.5 h, 10 µM	viability at 28.5 h, 10 µM (bulk resorufin, single well)
NS(=O)(=O)c1ccc(NC(=O)/C(=C/c2ccc(Br)cc2)NC(=O)c2ccccc2)cc1 [CBK262109]	105%	–
COc1cc(/C=N/NC(=O)c2ccccn2)ccc1OC(=O)c1cccc2ccccc12 [CBK262110]	94.4%	–
CCOc1ccc(/N=N\c2ccc(O)c(/C=N\Nc3ccc([N+](=O)[O-])cc3)c2)cc1 [CBK262111]	97.7%	–
O=C(Oc1cccc(/C=N/NC(=O)c2ccccn2)c1)c1cccc(Br)c1 [CBK262115]	90.5%	–
CN(C)CCCNC(=O)c1ccc([N+](=O)[O-])o1 [CBK262118]	92.8%	–
O=C(O)c1cc(N2C(=O)c3cccc4c([N+](=O)[O-])ccc(c34)C2=O)cc(N2C(=O)c3cccc4c([N+](=O)[O-])ccc(c34)C2=O)c1 [CBK262119]	–	91.8%
COc1ccc(/C=N/NC(=O)Cn2nnnc2N)cc1 [CBK262122]	84.9%	–
CCc1cc2c(=O)c(-c3nc4ccccc4n3C)c(C)oc2c(CN2CCOCC2)c1O [CBK262124]	94.1%	–
Nc1nnc(CC(=O)N/N=C/c2cc(Br)c(O)c(Br)c2O)s1 [CBK262131]	96%	–
O=C(NCc1ccco1)c1ccc2c(c1)OCO2 [CBK262133]	94.4%	–
NC(=O)CCN(CCC(N)=O)S(=O)(=O)c1ccc(N)cc1 [CBK262134]	118%	–
O=C(O)c1cc(NC(=O)c2ccccc2[N+](=O)[O-])cc(C(=O)O)c1 [CBK262135]	81.1%	–
C(=N\c1ccc(Cc2ccncc2)cc1)/c1ccc(/C=N/c2ccc(Cc3ccncc3)cc2)cc1 [CBK262137]	97%	–
CCOC(=O)Nc1ccc(S(=O)(=O)Nn2cnnc2)cc1 [CBK262138]	105%	–
O=C(O)c1cc(-c2cccnc2)nc2ccccc12 [CBK262141K]	103%	–
COc1ccc(C(O)Cc2nc3ccccc3n2Cc2ccc(Cl)cc2)cc1 (stereo not shown) [CBK262143]	86.2%	–
O=C(N/N=C/c1ccc(O)c(I)c1)c1ccncc1 [CBK262144]	86.2%	–
O=C(N/N=C/c1ccc(OC(=O)c2ccc([N+](=O)[O-])cc2)cc1)c1cccnc1 [CBK262146]	101%	–
O=C(O)c1cc(-c2ccccn2)nc2ccccc12 [CBK262147K]	108%	–
